In publication PMC5556071, “ATR inhibition facilitates targeting of leukemia dependence on convergent nucleotide biosynthetic pathways” (Nature Communications, 2017):
Values joined by “and” are separate entries in the source; they are usually repeats but may differ in a detail not shown here. Identical values can stand only once.

Test system: CEM cells
Assay: Non-targeted LC-MS metabolite profiling: percent [13C6]glucose labeling and relative metabolite levels
Assay type: cell-based, human
Conditions: CEM cells, 12 h following release from G1 arrest, replicates #1-#6
Text: To further investigate the functions of dCK and ATR at the G1/S transition in CEM cells, a non-targeted liquid chromatography mass spectrometry (LC-MS) assay was used to determine the utilization of labeled [^13C6]glucose and [^13C9,^15N3]deoxycytidine, the main substrates for de novo and salvage nucleotide biosynthesis, respectively. Of the 166 metabolites identified in CEM cells treated with VE-822 and/or dCKi, 105 metabolites found in all four treatment groups contained glucose-derived ^13C atoms. […] These metabolites included intermediates such as rUTP, rCTP and rCDP in the de novo dCTP biosynthesis (Fig. 1d). […] However, several deoxyribonucleotides, including dCTP, were below the limit of detection of the non-targeted LC-MS approach, raising the concern that the sensitivity of this assay is not sufficient to measure the contribution of the salvage pathway or the ratio of de novo and salvage biosynthesis to these pools. To address this problem, a newly developed targeted MS assay was developed (Fig. 1e and Supplementary Fig. 3). In this assay, samples containing either extracted dNTPs or hydrolyzed DNA from labeled cells are separated by LC for detection by a triple quadrupole mass spectrometer using multiple reaction monitoring (LC-MS/MS-MRM). The first (Q1) and third (Q3) quadrupoles function as mass filters, while the second (Q2) quadrupole serves as a collision chamber (Fig. 1e). For instance, to profile the biosynthetic composition of deoxycytidine (dC) derived from hydrolyzed DNA or dCTP, an intact, protonated dC ion is selected in Q1, followed by fragmentation of the glycosidic bond, which releases protonated cytosine in Q2, that is filtered in Q3 and detected to generate an ion chromatogram. The peak areas for the ion chromatograms of salvage [^13C9,^15N3]dC (red trace), de novo [^13C5]dC (black trace, from [^13C6]glucose) and unlabeled dC (gray trace) (Fig. 1e) are used to determine the relative contributions of the de novo and salvage routes both to dCTP pools and to DNA-incorporated dCTP.
Cells were transferred into RPMI-1640 without glucose and supplemented with 10% dialyzed FBS (Gibco) containing the following labeled substrates: precursors for de novo [U-^13C6]glucose (Sigma-Aldrich, 389374) at 11 mM; precursors for purine salvage [U-^13C10,^15N5]dA (Cambridge Isotopes, CIL 3896), [^15N5]dA (Cambridge Isotopes, NLM-3895) and [^15N5]dG (Cambridge Isotopes, NLM-3899) at 5 µM or as indicated; and precursors for pyrimidine salvage: [U-^13C9,^15N3]dC (Silantes, 124603602) and [U-^13C10,^15N2]dT (Cambridge Isotopes, CNLM-3902) at 5 µM and [^15N2]orotate (Cambridge Isotopes, NLM-1048) at indicated concentrations. The cells were incubated for 12 h or as indicated before sample collection and processing. […]
Non-targeted LC-MS metabolic assays. 1 x 10^6 cells were washed with ice-cold 150 mM ammonium acetate twice before adding 1 mL of ice-cold 80% methanol with 10 nM norvaline as an internal standard. After vigorous vortexing, samples were centrifuged at maximum speed, the aqueous layer was transferred to a glass vial and the metabolites were dried under vacuum. Metabolites were resuspended in 50 μL 70% acetonitrile (ACN) and 5 μL of this solution used for the mass spectrometer-based analysis. The analysis was performed on a Q Exactive (Thermo Scientific) in polarity-switching mode with positive voltage 4.0 kV and negative voltage 4.0 kV. The mass spectrometer was coupled to an UltiMate 3000RSLC (Thermo Scientific) UHPLC system. Mobile phase A was 5 mM ammonium acetate (NH4AcO), pH 9.9, B was acetonitrile and the separation achieved on a Luna […] NH2 100 A column (150 × 2.0 mm, Phenomenex). The flow was 200 μL/min, and the gradient ran from 15% A to 95% A in 18 min, followed by an isocratic step for 9 min and re-equilibration for 7 min. Metabolites were detected and quantified as area under the curve based on retention time and accurate mass (≤ 3 p.p.m.) using the TraceFinder 3.1 (Thermo Scientific). Relative amounts of […]

[1] = metabolite Asp (C00049), listed as V
[2] = metabolite Carnitine (C00318), listed as V
[3] = metabolite G3P (KEGG C00118), listed as V
[4] = metabolite G6P-F6P (KEGG C00668), listed as V
[5] = metabolite GABA (KEGG C00334), listed as V
[6] = metabolite GDP (KEGG C00035), listed as V
[7] = metabolite GMP (KEGG C00144), listed as V
[8] = metabolite GSH (KEGG C00051), listed as V
[9] = metabolite GSSG (KEGG C00127), listed as V
[10] = metabolite GTP (KEGG C00044), listed as V
[11] = metabolite Glc (KEGG C00031), listed as V
[12] = metabolite GlcA (KEGG C00257), listed as V
[13] = metabolite GlcN-6P (KEGG C00352), listed as V
[14] = metabolite GlcNAc-6P (KEGG C00357), listed as V

Structure (SMILES): CNCc1ccc(-c2cc(-c3nc(-c4ccc(S(=O)(=O)C(C)C)cc4)cnc3N)on2)cc1 [VE-822]
- Relative level, Asn (metabolite Asn (C00152), listed as V): 1.3 and 1.4 (2×) and 0.9 (3×)
- Glucose labeling, Asp [1]: 22.64% and 22.44% and 22.12% and 21.45% and 21.35% and 21.96%
- Relative level, Asp [1]: 1.8 and 1.3 and 1.4 and 1.5 and 0.9 and 1.0
- Glucose labeling, C (metabolite C (D07769), listed as V): 0.35% and 0.24% and 0.32% and 0.34% and 0.00758% and 0.36%
- Relative level, C (metabolite C, listed as V): 1.9 (2×) and 2.0 and 1.8 and 2.3 and 2.5
- Glucose labeling, Carnitine [2]: 0.0372% and 0.00375% and 0.00443% and 0.00282% and 0.06% and 0.00331%
- Relative level, Carnitine [2]: 0.9 and 1.0 (2×) and 0.7 (2×) and 0.8
- Glucose labeling of G3P [3]: 58.87% and 0.0369% (3×) and 100.00% (2×)
- Relative level of G3P [3]: 0.952 and 0.6 (2×) and 0.2 and 0.456
- Glucose labeling of G6P-F6P [4]: 88.15% and 86.27% and 90.17% and 83.23% and 85.62% and 81.44%
- Relative level of G6P-F6P [4]: 4.7 and 2.5 and 3.5 and 1.9 and 1.1 and 1.0
- Glucose labeling of GABA [5]: 0.05% and 0.04% and 0.0737% (4×)
- Relative level of GABA [5]: 0.9 (2×) and 1.0 and 0.4 (2×) and 0.5
- Glucose labeling of GDP [6]: 66.45% and 57.13% and 62.54% and 65.67% and 61.42% and 68.88%
- Relative level of GDP [6]: 2.9 and 0.7 and 1.2 and 1.1 and 0.647 and 0.351
- Glucose labeling of GMP [7]: 67.56% and 73.95% and 70.72% and 64.86% and 56.63% and 63.18%
- Relative level of GMP [7]: 3.6 and 1.9 (2×) and 2.2 and 0.527 and 0.431
- Glucose labeling of GSH [8]: 22.37% and 21.90% and 25.59% and 18.14% and 18.31% and 18.93%
- Relative level of GSH [8]: 1.4 and 1.1 and 0.9 and 0.6 and 0.557 and 0.5
- Glucose labeling of GSSG [9]: 41.97% and 38.91% and 39.41% and 36.66% and 34.27% and 31.20%
- Relative level of GSSG [9]: 1.0 (2×) and 0.9 and 0.7 and 0.553 and 0.533
- Glucose labeling of GTP [10]: 66.00% and 75.98% and 68.76% and 65.13% and 72.51% and 69.15%
- Relative level of GTP [10]: 1.6 and 0.4 (2×) and 0.8 and 0.9 and 0.378
- Glucose labeling of Glc [11]: 85.14% and 89.26% and 81.87% and 76.15% and 74.50% and 90.17%
- Relative level of Glc [11]: 1.6 and 2.4 and 1.4 and 0.9 (2×) and 3.6
- Glucose labeling of GlcA [12]: 10.98% and 10.19% and 12.71% and 10.94% and 11.47% and 12.23%
- Relative level of GlcA [12]: 0.9 and 0.6 and 0.566 and 0.5 and 0.3 (2×)
- Glucose labeling of GlcN (metabolite GlcN (KEGG C00329)): 0.18%
- Relative level of GlcN (metabolite GlcN (KEGG C00329), listed as V): 0.9 and 1.4 and 1.6 and 1.1 and 0.8 and 1.7
- Glucose labeling of GlcN-6P [13]: 6.56% and 5.43% and 4.48% and 7.20% and 4.32% and 4.29%
- Relative level of GlcN-6P [13]: 0.65 and 0.8 and 0.6 and 0.7 (2×) and 0.653
- Glucose labeling of GlcNAc-6P [14]: 39.94% and 9.75% and 47.59% and 56.84% and 49.88% and 50.30%
- Relative level of GlcNAc-6P [14]: 0.8 and 0.37 and 0.9 and 1.0 and 0.533 and 0.4
